# Assay results from patent publication US10500146B2, “Composition for skin whitening comprising amorphigeni as effective ingredient” (INDUSTRY-ACADEMIC COOPERATION FOUNDATION GYEONGSANG …, priority 2015, dated 2019).
# Columns and labels:
# Format in all cases: cell-based
# [1] = test system: B16F10 mouse melanoma cells; test: Cell cycle measurement, PI staining, flow cytometer; conditions: FIG. 3
# [2] = test system: B16F10 mouse melanoma cells; test: Cell viability (MTT analysis); conditions: amorphigeni at 100 nM and 1600 nM, 24 hours, FIG. 2
# Protocol: B16F10 cells were cultured for 24 hours in a 96-well plate. Thereafter, they were treated with amorphigeni at various concentrations, and cultured for 24 hours. Subsequently, a MTT solution (5 μg/mL) was added to the cells, which were then cultured for 3 hours. After removing the medium and treating the cells with DMSO, the cells were cultured for 20 minutes. By using a microplate reader (Bio-Rad), absorbance at 595 nm was measured.
# In Example 1, to find out functional plant metabolites which induce depigmentation in melanin cells, amorphigeni was isolated from roots of Amorpha fruticosa (FIG. 1). To determine the cytotoxicity of amorphigeni, B16F10 cells were treated with amorphigeni at various concentrations followed by culture for 24 hours. Then, based on MTT (3-(4,5-dimethylthiazol-2-yl)-2,5-diphenyltetrazolium bromide) analysis, cell viability was determined.
# [3] = test system: B16F10 mouse melanoma cells; test: Measurement of melanin content
# Protocol: Measurement of melanin content was carried out by slightly modifying the method by Yang et al. (Yang et al., 2006, Acta pharmacologica Sinica 27, 1467-73). Specifically, B16F10 cells were inoculated into a 6-well plate and cultured for 24 hours. Thereafter, the cells were treated with amorphigeni and α-MSH, each at 1 μM, followed by culture for 48 hours. The cultured cells were collected after being subjected to trypsinization and dissolution in 1 N NaOH containing DMSO for 24 hours at 65° C. By using a microplate reader (Bio-Rad), melanin content was measured at 415 nm.
# In order to see whether or not amorphigeni can suppress the pigmentation induced by α-MSH (melanocyte-stimulating hormone), B16F10 cells were treated with α-MSH and amorphigeni, either separately or simultaneously, followed by incubation for 72 hours. […] Namely, it was able confirm that, by reducing melanin content, amorphigeni of the present invention can suppress […].
# Furthermore, after treating B16F10 melanin cells with α-MSH, amorphigeni, and 3MA all together for 48 hours, the melanin content and oxidation level of L-DOPA were measured (***P≤0.001).
# In order to confirm whether or not amorphigeni causes degradation of melanosomes which have been previously produced by α-MSH, B16F10 melanin cells were treated for 48 hours with α-MSH to have synthesis of melanosomes. Thereafter, the cells were treated with amorphigeni for 48 hours, and melanin content was measured.
# Furthermore, in order to see whether or not amorphigeni causes degradation of previously produced melanosomes via autophagy, B16F10 melanin cells were treated with α-MSH for 48 hours to have synthesis of melanosome. After that, the cells were treated with 3MA as an autophagy inhibitor for 48 hours. Then, the melanin content and protein expression level of tyrosinase and PMEL were measured (ns=no significance, *P≤0.05, **P≤0.01, ***P≤0.001).
structure (smiles),measurement,setting,value
C=C(CO)C1Cc2c(ccc3c2OC2COc4cc(OC)c(OC)cc4C2C3=O)O1 (stereo not drawn) [amorphigeni],"cell death (cell cycle, PI staining)",[1],without inducing any cell death
same,"cytotoxicity (cell viability, MTT)",[2],low cytotoxicity
same,content of the previously formed melanin,"[3]; α-MSH 48 hours, then amorphigeni 48 hours, FIG. 10",effectively lowered
same,melanin content (previously formed),"[3]; α-MSH 48 hours, then amorphigeni and 3MA 48 hours, versus α-MSH and amorphigeni, FIG. 11",increased again
same,melanin content,"[3]; α-MSH and amorphigeni together versus α-MSH only, 72 hours, FIG. 4A",tend to decease
same,melanin content,"[3]; α-MSH, amorphigeni and 3MA together, 48 hours, versus α-MSH and amorphigeni, FIG. 9A",increased again
